# Active and inactive are the calls of the source.
# What was measured:
# [1] = target: T1, Corticotropin-releasing factor receptor 2/Corticotropin-releasing factor-binding protein (Homo sapiens, UniProt P24387+Q13324); assay: Dose Response confirmation of uHTS hits for small molecule antagonists of the CRF-binding protein and CRF-R2 receptor complex.; format: functional; details: read-out: IC50_Mean
# T1 sequence (Q13324 whole entry): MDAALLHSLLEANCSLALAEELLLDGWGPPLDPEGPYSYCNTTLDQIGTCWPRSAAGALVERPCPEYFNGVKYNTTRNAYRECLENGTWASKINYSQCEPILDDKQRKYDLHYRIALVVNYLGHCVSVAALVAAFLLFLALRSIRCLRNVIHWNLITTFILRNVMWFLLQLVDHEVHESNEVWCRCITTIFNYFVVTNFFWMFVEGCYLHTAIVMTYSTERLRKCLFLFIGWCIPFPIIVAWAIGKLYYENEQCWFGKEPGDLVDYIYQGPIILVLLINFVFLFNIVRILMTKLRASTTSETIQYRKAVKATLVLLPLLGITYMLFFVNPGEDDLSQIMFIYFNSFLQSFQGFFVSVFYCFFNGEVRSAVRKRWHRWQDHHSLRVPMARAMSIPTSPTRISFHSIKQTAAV
# T1 sequence (P24387 whole entry): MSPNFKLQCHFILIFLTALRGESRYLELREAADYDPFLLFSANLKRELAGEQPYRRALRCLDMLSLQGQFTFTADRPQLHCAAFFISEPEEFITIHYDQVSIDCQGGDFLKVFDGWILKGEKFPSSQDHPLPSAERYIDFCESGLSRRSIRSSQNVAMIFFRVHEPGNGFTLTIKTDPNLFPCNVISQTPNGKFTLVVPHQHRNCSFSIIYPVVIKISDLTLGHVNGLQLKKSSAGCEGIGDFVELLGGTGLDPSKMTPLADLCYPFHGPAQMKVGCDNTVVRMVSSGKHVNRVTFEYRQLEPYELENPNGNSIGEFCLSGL
# Vero = Vero cell cytotoxicity, cytotoxicity control for flavivirus capping enzyme inhibitors (AID 588742); format: functional; details: Chlorocebus sabaeus
# Genome polyprotein = Genome polyprotein (dengue virus type 2, UniProt P29990); assay: Dengue-2 NS5 methyltransferase inhibitors, primary screen, biochemical, confirmation dose response (AID 588689); format: functional
# [2] = target: T1, Corticotropin-releasing factor receptor 2/Corticotropin-releasing factor-binding protein; assay: activators of CRF receptor 2 with binding protein – uHTS hits, confirmation (AID 602473); format: functional; details: read-out: EC50_Mean
# [3] = CRF-BP/CRF-R2 complex antagonists, dose response, cell-based, uHTS hits, 384-well (AID 651639); format: functional, Homo sapiens; details: read-out: IC50_Mean
# [4] = Luminescence Cell-Based Dose Confirmation HTS to Identify Inhibitors of Polyadenylation.; format: functional
# Orexin receptor type 2 [5] = target: T2, Orexin receptor type 2 (Homo sapiens, UniProt O43614); assay: Counterscreen assay for antagonists of the orexin 1 receptor (OX1R; HCRTR1): Homogeneous Time Resolved Fluorescence (HTRF)-based cell-based dose response assay for antagonists of the orexin 2 receptor (OX2R; HCRTR2), run by assay provider.; format: functional
# T2 sequence (O43614 whole entry): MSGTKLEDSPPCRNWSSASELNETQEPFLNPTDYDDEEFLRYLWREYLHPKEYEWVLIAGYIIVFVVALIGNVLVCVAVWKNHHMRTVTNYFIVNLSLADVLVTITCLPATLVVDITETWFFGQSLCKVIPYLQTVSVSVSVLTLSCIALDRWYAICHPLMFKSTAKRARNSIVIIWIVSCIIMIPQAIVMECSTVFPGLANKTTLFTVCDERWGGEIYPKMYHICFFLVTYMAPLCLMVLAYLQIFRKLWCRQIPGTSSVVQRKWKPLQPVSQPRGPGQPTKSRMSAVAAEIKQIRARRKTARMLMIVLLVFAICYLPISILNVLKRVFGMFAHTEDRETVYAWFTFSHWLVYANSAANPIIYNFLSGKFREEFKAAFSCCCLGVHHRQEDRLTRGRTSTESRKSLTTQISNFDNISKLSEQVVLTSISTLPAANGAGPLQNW
# Orexin receptor type 2 [6] = target: T2, Orexin receptor type 2; assay: Counterscreen assay for antagonists of the orexin 1 receptor (OX1R; HCRTR1): Fluorescence-based cell-based dose response assay for antagonists of the orexin 2 receptor (OX2R; HCRTR2), run by assay provider.; format: functional
# [7] = target: T3, Orexin/Hypocretin receptor type 1 (Homo sapiens, UniProt O43613); assay: Homogeneous Time Resolved Fluorescence (HTRF)-based cell-based high throughput dose response assay for antagonists of the orexin 1 receptor (OX1R; HCRTR1). [Related pubchem assays (depositor defined):AID434989, AID435008, AID463079, AID485270, AID492963, AID492964, AID492965, AID493232, AID504717, AID504718]; format: functional
# T3 sequence (O43613 whole entry): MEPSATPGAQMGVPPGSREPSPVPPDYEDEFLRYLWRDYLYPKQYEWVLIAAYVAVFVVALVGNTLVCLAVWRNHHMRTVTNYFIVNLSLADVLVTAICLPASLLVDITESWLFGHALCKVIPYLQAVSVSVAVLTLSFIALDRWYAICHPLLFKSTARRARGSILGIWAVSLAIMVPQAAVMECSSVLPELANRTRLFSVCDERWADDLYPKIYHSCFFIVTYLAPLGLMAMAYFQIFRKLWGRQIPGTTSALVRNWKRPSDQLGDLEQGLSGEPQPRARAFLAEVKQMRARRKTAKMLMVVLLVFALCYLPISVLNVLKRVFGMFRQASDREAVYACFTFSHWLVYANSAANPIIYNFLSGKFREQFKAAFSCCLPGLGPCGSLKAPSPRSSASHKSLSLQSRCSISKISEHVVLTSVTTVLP
# [8] = (§1) Counterscreen for antagonists of the orexin 1 receptor (OX1R; HCRTR1): Fluorescence-based cell-based high throughput dose response assay to identify antagonists of the parental CHO cell line. [Related pubchem assays (depositor defined):AID434989, AID435008, AID463079, AID485270, AID492963, AID492964, AID492965, AID493232, AID504699, AID504701]; format: functional
# CHO-K1 = assay: as §1, with “Homogeneous time resolved fluorescence (HTRF)-based” for “Fluorescence-based”, “cell-based” for “cell-based high throughput”, “CHO-K1” for “CHO”; format: functional; details: Cricetulus griseus;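 also: potency for inhibition of ATP-stimulated IP1 production as antagonists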
# [9] = target: T3, Orexin/Hypocretin receptor type 1; assay: Fluorescence-based cell-based high throughput dose response assay for antagonists of the orexin 1 receptor (OX1R; HCRTR1). [Related pubchem assays (depositor defined):AID434989, AID435008, AID463079, AID485270, AID492963, AID492964, AID492965, AID493232, AID504717, AID504718]; format: functional
# Wee1-like protein kinase = Wee1-like protein kinase (Homo sapiens, UniProt P30291); assay: Navigating the Kinome. Panel member name: WEE1; format: functional
# Chain of Wee1-like protein kinase (P30291 whole entry): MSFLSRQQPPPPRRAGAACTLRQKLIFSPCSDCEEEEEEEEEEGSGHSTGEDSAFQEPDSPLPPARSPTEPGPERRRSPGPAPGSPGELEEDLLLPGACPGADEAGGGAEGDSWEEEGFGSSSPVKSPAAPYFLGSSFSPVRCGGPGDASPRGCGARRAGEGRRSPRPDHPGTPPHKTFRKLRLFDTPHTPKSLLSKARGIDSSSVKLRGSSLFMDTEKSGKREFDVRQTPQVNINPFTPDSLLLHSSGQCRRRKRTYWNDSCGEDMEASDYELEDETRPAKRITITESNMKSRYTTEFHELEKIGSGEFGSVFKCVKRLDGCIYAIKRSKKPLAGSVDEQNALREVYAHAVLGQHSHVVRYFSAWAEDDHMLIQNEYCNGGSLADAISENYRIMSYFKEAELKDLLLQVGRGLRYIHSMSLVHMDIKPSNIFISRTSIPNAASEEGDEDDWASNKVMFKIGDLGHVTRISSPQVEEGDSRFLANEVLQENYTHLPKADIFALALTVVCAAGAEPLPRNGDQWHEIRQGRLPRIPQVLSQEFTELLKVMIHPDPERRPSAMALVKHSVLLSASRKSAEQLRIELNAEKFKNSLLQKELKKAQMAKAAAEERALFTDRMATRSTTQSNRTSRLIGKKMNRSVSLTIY
# [10] = target: Cell division cycle 7-related protein kinase (Homo sapiens, UniProt O00311); format: functional;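 also: value obtained from a kinome-wide kinase panel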
# Chain of Cell division cycle 7-related protein kinase (O00311 whole entry): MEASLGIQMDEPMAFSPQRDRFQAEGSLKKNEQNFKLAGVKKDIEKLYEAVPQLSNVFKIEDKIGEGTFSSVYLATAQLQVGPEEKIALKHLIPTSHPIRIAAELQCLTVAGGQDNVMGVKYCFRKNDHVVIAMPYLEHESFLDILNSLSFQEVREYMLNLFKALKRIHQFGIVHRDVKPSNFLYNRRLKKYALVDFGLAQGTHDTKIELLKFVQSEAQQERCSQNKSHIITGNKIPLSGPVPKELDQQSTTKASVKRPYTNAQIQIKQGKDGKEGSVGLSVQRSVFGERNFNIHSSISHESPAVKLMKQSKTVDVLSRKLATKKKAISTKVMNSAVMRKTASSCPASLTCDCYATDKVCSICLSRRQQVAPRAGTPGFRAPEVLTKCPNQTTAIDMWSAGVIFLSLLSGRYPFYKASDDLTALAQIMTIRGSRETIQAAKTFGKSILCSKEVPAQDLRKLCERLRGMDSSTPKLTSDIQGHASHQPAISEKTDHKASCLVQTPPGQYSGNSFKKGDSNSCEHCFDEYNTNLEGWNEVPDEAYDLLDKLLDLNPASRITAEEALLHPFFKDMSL
# Aurora kinase B = Aurora kinase B (Homo sapiens, UniProt Q96GD4); format: functional
# Aurora kinase A = Aurora kinase A (Homo sapiens, UniProt O14965); format: functional;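 also: value from the Navigating the Kinome kinase panel profiling, panel entry STK6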
# [11] = target: Vascular endothelial growth factor receptor 2 (Homo sapiens, UniProt P35968); format: functional
# Chain of Vascular endothelial growth factor receptor 2 (P35968 whole entry): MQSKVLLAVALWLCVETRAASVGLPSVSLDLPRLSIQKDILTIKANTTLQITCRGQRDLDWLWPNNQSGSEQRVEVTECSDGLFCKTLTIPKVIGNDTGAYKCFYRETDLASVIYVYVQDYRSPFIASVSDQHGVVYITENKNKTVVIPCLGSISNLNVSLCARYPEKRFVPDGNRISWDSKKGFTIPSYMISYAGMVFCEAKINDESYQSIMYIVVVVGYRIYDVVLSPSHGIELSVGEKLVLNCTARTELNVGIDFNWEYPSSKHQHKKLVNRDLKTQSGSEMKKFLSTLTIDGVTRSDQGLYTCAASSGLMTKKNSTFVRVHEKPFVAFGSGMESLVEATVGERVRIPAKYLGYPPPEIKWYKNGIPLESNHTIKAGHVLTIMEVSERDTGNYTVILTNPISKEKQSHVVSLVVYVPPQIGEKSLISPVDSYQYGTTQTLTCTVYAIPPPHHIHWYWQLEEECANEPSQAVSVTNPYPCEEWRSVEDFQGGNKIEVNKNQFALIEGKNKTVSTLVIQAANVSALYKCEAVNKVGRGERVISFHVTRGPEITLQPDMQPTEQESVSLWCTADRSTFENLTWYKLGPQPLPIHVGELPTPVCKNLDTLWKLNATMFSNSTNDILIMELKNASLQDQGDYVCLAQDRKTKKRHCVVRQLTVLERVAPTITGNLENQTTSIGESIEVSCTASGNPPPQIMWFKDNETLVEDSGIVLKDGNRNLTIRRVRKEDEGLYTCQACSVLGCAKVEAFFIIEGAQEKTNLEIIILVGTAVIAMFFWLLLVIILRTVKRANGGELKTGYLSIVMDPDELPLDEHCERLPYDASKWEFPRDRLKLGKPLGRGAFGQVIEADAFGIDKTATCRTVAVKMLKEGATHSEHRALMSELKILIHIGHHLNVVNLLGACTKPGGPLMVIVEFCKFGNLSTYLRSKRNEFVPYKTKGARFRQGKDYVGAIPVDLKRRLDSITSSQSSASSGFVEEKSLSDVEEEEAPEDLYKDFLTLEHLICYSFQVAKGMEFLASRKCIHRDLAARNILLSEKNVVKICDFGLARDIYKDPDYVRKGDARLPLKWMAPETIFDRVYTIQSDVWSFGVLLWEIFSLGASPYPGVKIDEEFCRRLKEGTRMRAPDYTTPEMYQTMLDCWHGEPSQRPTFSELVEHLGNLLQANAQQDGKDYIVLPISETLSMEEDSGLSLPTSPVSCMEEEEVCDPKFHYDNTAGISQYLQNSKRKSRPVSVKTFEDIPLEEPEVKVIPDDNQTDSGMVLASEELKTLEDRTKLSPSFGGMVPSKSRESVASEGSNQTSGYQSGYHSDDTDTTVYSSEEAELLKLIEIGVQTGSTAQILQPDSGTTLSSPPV
# [12] = target: Dual specificity tyrosine-phosphorylation-regulated kinase 1A (Homo sapiens, UniProt Q13627); format: functional;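 also: measured against DYRK1A as one member of a broad kinome profiling panel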
# [13] = target: Vascular endothelial growth factor receptor 1 (Homo sapiens, UniProt P17948); format: functional;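 also: measured within a kinome-wide profiling panel, FLT1 as the panel member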
# [14] = target: Death-associated protein kinase 3 (Homo sapiens, UniProt O43293); format: functional;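 also: measured as one member of a kinome-wide profiling panel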
# LIM domain kinase 1 = LIM domain kinase 1 (Homo sapiens, UniProt P53667); assay: Navigating the Kinome. Panel member name: LIMK1; format: functional
# [15] = Vero cell cytotoxicity, dose response, cytotoxicity control for M. tuberculosis growth inhibitor project, Vero cells, purified and synthesized compounds, set 4 (AID 504854); format: functional; details: Mycobacterium tuberculosis
# [16] = THP-1 cell cytotoxicity, cytotoxicity control, set 4 (AID 504911); format: functional; details: Mycobacterium tuberculosis
# Cysteine protease ATG4B = Cysteine protease ATG4B (Homo sapiens, UniProt Q9Y4P1); format: functional;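 also: Fluorescence-based dose-response confirmation assay measuring inhibition of ATG4B activity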
# [17] = cytotoxicity toward NIH3T3 fibroblasts, dose response, counter-screen, cell-based, ATP luminescence, mouse fibroblasts (AID 2010); format: functional;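 also: cells exposed to compound for about 90 hours before reading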
# Phospholipase A2 = Phospholipase A2 (Homo sapiens, UniProt P04054); format: functional;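 also: confirmatory dose-response counterscreen on phospholipase A2, testing hits that came from an ultra-high-throughput screen for ATG4B inhibitors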
# [18] = inhibitors of intracellular T. cruzi replication, confirmation, NIH3T3 host cells, beta-gal luminescence (AID 2044); format: functional, cell-based;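 also: intracellular parasites grown in NIH/3T3 mouse fibroblasts as host cells; luminescent beta-galactosidase reporter signal from transgenic T. cruzi replicating inside host cells; inhibitors lower the luminescence signal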
# [19] = target: Glycogen synthase kinase-3 beta (Homo sapiens, UniProt P49841); assay: Inhibition of Human GSK-3 beta Activity Measured in Biochemical System Using Microfluidics - 2063-05_Inhibitor_Dose_DryPowder_Activity_Set2. [Related pubchem assays (depositor defined):AID2709]
# Chain of Glycogen synthase kinase-3 beta (P49841 whole entry): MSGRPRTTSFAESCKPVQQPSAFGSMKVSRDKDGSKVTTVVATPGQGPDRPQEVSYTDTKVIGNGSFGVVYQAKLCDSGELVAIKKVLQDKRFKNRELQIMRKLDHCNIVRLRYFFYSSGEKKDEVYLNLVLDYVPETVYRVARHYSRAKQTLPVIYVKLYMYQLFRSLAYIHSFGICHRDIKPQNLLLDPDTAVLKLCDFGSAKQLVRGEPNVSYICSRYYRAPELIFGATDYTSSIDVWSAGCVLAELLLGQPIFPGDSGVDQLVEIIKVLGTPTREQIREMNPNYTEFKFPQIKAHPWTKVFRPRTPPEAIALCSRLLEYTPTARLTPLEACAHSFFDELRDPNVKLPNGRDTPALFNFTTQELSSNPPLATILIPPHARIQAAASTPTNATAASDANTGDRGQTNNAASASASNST
# [20] = target: Glycogen synthase kinase-3 alpha (Homo sapiens, UniProt P49840); assay: Inhibition of Human GSK-3 alpha Activity Measured in Biochemical System Using Microfluidics - 2063-06_Inhibitor_Dose_DryPowder_Activity_Set2. [Related pubchem assays (depositor defined):AID2709]
# [21] = target: 1-acylglycerol-3-phosphate O-acyltransferase ABHD5/Perilipin-5 (Homo sapiens, UniProt Q00G26+Q8WTS1); assay: Luminescence-based biochemical high throughput dose response assay for inhibitors of the interaction of the lipase co-activator protein, abhydrolase domain containing 5 (ABHD5) with perilipin-5 (MLDP; PLIN5) (2K validation set). [Related pubchem assays (depositor defined):AID493035, AID493241]
# [22] = target: Voltage-gated inwardly rectifying potassium channel KCNH2 (Homo sapiens, UniProt Q12809); details: Potency;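 also: confirmatory quantitative high-throughput screen measuring inhibition of hERG channel activity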
# Chain of Voltage-gated inwardly rectifying potassium channel KCNH2 (Q12809 whole entry, the tested form may be a part): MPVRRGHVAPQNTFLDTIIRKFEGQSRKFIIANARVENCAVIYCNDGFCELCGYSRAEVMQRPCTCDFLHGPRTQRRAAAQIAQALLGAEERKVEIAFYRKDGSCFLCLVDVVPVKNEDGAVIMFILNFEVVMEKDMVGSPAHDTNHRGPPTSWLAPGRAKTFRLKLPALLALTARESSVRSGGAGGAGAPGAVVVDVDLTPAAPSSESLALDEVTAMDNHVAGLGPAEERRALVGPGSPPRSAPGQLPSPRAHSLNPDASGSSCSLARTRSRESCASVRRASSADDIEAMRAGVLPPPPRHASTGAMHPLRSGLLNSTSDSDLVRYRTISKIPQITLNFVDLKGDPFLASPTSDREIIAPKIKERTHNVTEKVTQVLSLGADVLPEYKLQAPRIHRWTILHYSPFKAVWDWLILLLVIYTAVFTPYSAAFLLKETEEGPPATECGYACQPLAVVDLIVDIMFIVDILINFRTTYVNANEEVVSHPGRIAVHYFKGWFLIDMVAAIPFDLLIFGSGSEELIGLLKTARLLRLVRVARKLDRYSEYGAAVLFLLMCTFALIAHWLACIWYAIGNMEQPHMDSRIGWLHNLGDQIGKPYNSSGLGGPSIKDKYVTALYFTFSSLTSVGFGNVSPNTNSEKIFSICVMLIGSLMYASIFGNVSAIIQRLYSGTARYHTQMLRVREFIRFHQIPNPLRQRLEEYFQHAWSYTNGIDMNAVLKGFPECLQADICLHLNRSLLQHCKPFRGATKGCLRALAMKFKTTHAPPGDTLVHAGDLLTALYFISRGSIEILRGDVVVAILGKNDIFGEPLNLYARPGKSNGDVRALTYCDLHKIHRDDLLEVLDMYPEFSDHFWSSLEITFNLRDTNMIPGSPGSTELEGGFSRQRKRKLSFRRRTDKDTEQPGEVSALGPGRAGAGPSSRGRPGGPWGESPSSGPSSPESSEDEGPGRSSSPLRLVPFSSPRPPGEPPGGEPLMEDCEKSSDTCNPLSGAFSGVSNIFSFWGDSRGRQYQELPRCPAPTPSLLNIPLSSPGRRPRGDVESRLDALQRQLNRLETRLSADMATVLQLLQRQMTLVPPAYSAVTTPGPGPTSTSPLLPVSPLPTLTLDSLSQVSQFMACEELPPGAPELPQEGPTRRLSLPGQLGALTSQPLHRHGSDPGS
# Perilipin-1/ABHD5 = Perilipin-1/ABHD5 (Homo sapiens, UniProt O60240+Q8WTS1); assay: Luminescence-based biochemical high throughput dose response assay for inhibitors of the interaction of the lipase co-activator protein, abhydrolase domain containing 5 (ABHD5) with perilipin-1 (PLIN1) (2K validation set). [Related pubchem assays (depositor defined):AID493027, AID493057]
# [23] = target: T4, Replicative DNA helicase DnaB (Mycobacterium tuberculosis, UniProt P9WMR3); assay: DnaB intein splicing inhibitors, dose response, biochemical, cell-free fluorescence (AID 449749); format: functional
# T4 sequence (P9WMR3 whole entry): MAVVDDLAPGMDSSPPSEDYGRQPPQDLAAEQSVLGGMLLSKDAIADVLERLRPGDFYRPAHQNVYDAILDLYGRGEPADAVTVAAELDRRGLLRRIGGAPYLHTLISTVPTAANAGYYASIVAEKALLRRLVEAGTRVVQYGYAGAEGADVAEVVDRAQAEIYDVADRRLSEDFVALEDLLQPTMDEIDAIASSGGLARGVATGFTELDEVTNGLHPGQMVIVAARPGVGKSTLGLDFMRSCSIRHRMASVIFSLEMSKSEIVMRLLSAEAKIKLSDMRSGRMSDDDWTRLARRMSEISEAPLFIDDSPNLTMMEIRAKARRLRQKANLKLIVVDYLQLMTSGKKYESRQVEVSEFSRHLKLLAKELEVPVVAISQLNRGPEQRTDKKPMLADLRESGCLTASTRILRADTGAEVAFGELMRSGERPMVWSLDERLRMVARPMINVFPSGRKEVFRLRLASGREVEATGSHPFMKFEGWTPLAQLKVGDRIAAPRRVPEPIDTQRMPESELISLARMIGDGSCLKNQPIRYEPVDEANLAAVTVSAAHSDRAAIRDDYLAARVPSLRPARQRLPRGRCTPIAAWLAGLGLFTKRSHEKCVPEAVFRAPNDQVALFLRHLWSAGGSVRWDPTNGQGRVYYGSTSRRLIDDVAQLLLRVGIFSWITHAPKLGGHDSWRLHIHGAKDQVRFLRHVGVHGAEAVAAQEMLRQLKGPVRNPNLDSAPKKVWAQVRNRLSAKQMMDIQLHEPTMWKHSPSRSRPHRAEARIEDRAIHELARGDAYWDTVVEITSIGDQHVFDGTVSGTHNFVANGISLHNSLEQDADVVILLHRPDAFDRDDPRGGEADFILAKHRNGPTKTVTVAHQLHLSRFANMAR
# [24] = target: Protein-arginine deiminase type-4 (Homo sapiens, UniProt Q9UM07); assay: human PAD4 inhibitor potency, dose response, biochemical, fluorescence readout (AID 492970)
# Protein RecA = target: T5, Protein RecA (Mycobacterium tuberculosis, UniProt P9WHJ3); assay: Fluorescence Cell-Free Homogeneous Dose Retest to Identify Inhibitors of RecA-Intein Splicing Activity. [Related pubchem assays (depositor defined):AID2097, AID2223, AID489010, AID492950]; format: functional
# T5 sequence (P9WHJ3 whole entry): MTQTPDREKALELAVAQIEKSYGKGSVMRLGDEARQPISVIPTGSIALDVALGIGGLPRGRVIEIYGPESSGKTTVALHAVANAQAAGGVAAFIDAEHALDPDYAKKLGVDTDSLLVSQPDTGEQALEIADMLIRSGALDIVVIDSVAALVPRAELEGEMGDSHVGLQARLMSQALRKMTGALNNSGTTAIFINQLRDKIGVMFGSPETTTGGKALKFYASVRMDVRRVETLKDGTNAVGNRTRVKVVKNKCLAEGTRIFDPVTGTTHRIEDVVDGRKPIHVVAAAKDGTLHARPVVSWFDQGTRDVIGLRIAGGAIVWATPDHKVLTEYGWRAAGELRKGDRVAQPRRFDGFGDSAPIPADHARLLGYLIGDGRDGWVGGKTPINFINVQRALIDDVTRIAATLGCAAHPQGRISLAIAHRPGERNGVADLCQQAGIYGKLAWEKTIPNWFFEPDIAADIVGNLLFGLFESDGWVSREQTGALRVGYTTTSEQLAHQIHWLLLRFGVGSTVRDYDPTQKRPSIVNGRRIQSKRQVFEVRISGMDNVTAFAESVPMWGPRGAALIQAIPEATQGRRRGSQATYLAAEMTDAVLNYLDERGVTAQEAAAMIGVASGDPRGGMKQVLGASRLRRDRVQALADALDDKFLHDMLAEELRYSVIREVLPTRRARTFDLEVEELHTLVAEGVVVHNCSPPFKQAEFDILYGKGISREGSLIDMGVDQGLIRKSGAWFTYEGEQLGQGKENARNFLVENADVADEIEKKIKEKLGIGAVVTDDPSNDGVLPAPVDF
structure (smiles),measurement,setting,value
O=C1S/C(=C\c2ccc(O)c([N+](=O)[O-])c2)C(=O)N1c1ccccc1Cl,IC50,[1],24.4 µM (active)
same,CC50,Vero,> 40 µM (active)
same,IC50,Genome polyprotein,40.6 µM (active)
same,EC50,[2],> 53 µM (inactive)
same,IC50,[3],> 20 µM (inactive)
same,EC50,[4],> 120 µM (not active)
Cc1ccc([C@@H]2CC=C(C(=O)O)[C@H](c3cccc(Cl)c3)N2S(=O)(=O)c2ccccc2C)cc1,IC50,Orexin receptor type 2 [5],0.67 µM (active)
same,IC50,Orexin receptor type 2 [6],3.9 µM (active)
same,IC50,[7],0.601 µM (active)
same,IC50,[8],18.7 µM (inactive)
same,IC50,CHO-K1,> 66.2 µM (inactive)
same,IC50,[9],4.6 µM (active)
Fc1ccc(Nc2ncnc(Nc3ccc4[nH]ncc4c3)n2)cc1,Ki,Wee1-like protein kinase,> 3.16 µM (inactive)
same,Ki,[10],0.126 µM (active)
CCS(=O)(=O)Nc1ccc2c(c1)C(=NO)c1ccccc1-2,Ki,Aurora kinase B,0.0316 µM (active)
same,Ki,Aurora kinase A,0.631 µM (active)
same,Ki,[11],3.16 µM (active)
O=c1sn(-c2ccc3c(c2)OCO3)c(=O)n1Cc1ccccc1,Ki,[12],1.26 µM (active)
same,Ki,[13],2 µM (active)
same,Ki,[14],3.16 µM (active)
CCc1ccc(NC(=O)c2cnn3c(-c4ccccc4)ccnc23)cc1,Ki,LIM domain kinase 1,3.16 µM (active)
O=C(CSc1nc2ccccc2c(=O)[nH]1)NC1CCCC1,CC50,[15],> 100 µM (active)
same,CC50,[16],> 100 µM (active)
CC(C)C[C@H](NC(=O)OC(C)(C)C)C(=O)N/N=C/C1=Cc2ccccc2OC1C (stereo not given in full),IC50,Cysteine protease ATG4B,37.1 µM (inactive)
same,EC50,[17],> 60 µM (not active)
same,IC50,Phospholipase A2,15.4 µM (active)
same,EC50,[18],3.34 µM (active)
O=C(Nc1ccsc1C(=O)NC1CCCCC1)c1ccc(F)cc1,AC50,[19],6.28 µM (active)
same,AC50,[20],24.9 µM (active)
Cc1ccc(S(=O)(=O)N[C@@H](Cc2ccccc2)C(=O)CCl)cc1 [TPCK],IC50,[21],1.9 µM (active)
same,AC50,[22],12.6 µM (inconclusive)
same,IC50,Perilipin-1/ABHD5,1.87 µM (active)
same,AC50,[23],2.03 µM (active)
same,IC50,[24],13 µM (inactive)
same,EC50,Protein RecA,0.712 µM (active)
